Legend:
Settings in all cases: 72 h
[1] = test system: MDA-MB-453
In short: (§1)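 Compound dissolved in 5 µl medium was placed in 384-well plates before 20 µl of breast cancer cell suspension was added, and the plates were incubated for 72 h. Cells then received 2.5 µl CellTiter-Blue for 2 h at 37 °C, and fluorescence was read at 560/590 nm. EC50 values come from percent-inhibition dose-response fits that were censored at the highest concentration, with plates normalised to vehicle and a positive kill control and rows with a zero drug sensitivity score excluded.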

[2] = test system: BT-549
Procedure: (§2)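 Drug sensitivity and resistance testing (DSRT) of breast cancer cell lines in 384-well plates, 5 concentrations in 10-fold dilutions over a compound-specific 10,000-fold range. After 72 h, cytotoxicity was read by CellTox Green fluorescence and viability by CellTiter-Glo luminescence (multiplexed), normalised to DMSO and benzethonium chloride controls. EC50 is the inflection point of the fitted dose-response curve (bottom asymptote free, so it can be relative for partial curves) and is censored at the highest tested concentration. Rows with DSS 0 (no meaningful response) were excluded.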

[3] = test system: HCC1937
In short: as §1

[4] = test system: CAL-120
In short: as §1

[5] = test system: MDA-MB-468
In short: as §1

[6] = test system: BT-549; remark: listed apart in the source
In short: as §1

[7] = test system: BT-474
In short: as §1

[8] = test system: Hs578T
In short: as §1

[9] = test system: SK-BR-3
In short: as §1

[10] = test system: MDA-MB-436
In short: as §1

[11] = test system: MDA-MB-231
In short: as §1

[12] = test system: HCC1143
In short: as §1

[13] = test system: CAL-148
In short: as §1

[14] = test system: CAL-85-1
In short: as §1

[15] = test system: HDQ-P1
In short: as §1

[16] = test system: CAL-85-1; remark: listed apart in the source
Procedure: as §2

[17] = test system: CAL-51
Procedure: as §2

[18] = test system: CAL-120; remark: listed apart in the source
In short: (§3)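 Two sequential readouts followed a 72 h incubation of breast cancer cell lines with compound at 5 concentrations in 10-fold steps over a compound-specific 10,000-fold range: CellTox Green fluorescence (485/520 nm) for cell death, then CellTiter-Glo luminescence, after 10 min at room temperature, for viability. Each plate was normalised to 0.1 % DMSO and a positive kill control. Dose-response curves were fitted for EC50, censored at the top concentration.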

[19] = test system: CAL-85-1; remark: listed apart in the source
In short: as §3

[20] = test system: CAL-148; remark: listed apart in the source
In short: as §3

[21] = test system: SK-BR-3; remark: listed apart in the source
In short: as §3

[22] = test system: MDA-MB-436; remark: listed apart in the source
In short: as §3

[23] = test system: MCF-10A
In short: as §3

[24] = test system: HDQ-P1; remark: listed apart in the source
In short: as §3

[25] = test system: HCC1599
In short: as §1

Structure (SMILES) | EC50, CellTiter-Blue viability [1] [nM] | EC50, CellTiter-Blue viability [3] [nM] | EC50, CellTiter-Blue viability [4] [nM] | EC50, CellTiter-Blue viability [5] [nM] | EC50, CellTiter-Blue viability [7] [nM] | EC50, CellTiter-Blue viability [9] [nM] | EC50, CellTiter-Blue viability [10] [nM] | EC50, CellTiter-Blue viability [13] [nM] | further results
CC(C)Cn1cnc2c(N)nc3ccccc3c21 [Imiquimod] | 6690 | – | – | – | – | – | – | – | EC50, CellTox Green [2]: > 2500 nM
N[C@@H](CSC(c1ccccc1)(c1ccccc1)c1ccccc1)C(=O)O [S-trityl-L-cysteine] | – | 715 | 2000 | 1410 | 10800 | 1130 | 4580 | – | EC50, CellTiter-Blue viability [6]: 18300 nM; EC50, CellTiter-Blue viability [8]: 1910 nM; EC50, CellTiter-Blue viability [11]: 955 nM; EC50, CellTiter-Blue viability [12]: > 40000 nM
COc1cc2nccc(Oc3ccc(NC(=O)C4(C(=O)Nc5ccc(F)cc5)CC4)cc3)c2cc1OC [Cabozantinib] | 874 | – | – | – | – | – | – | 558 | –
C#Cc1cccc(Nc2ncnc3cc(OCCOC)c(OCCOC)cc23)c1 [Erlotinib] | 8340 | 937 | 2450 | 1510 | 1750 | 4990 | 840 | 3630 | EC50, CellTiter-Blue viability [14]: 754 nM; EC50, CellTiter-Blue viability [15]: 90.2 nM; EC50, CellTox Green [16]: 1590 nM; EC50, CellTox Green [17]: 3160 nM; EC50, CellTiter-Glo [18]: 9090 nM; EC50, CellTiter-Glo [19]: 761 nM; EC50, CellTiter-Glo [20]: 881 nM; EC50, CellTiter-Glo [21]: 3440 nM; EC50, CellTiter-Glo [22]: 7110 nM; EC50, CellTiter-Glo [23]: 96 nM; EC50, CellTiter-Glo [24]: 28.7 nM; EC50, CellTiter-Blue viability [25]: 103 nM
